# Measurements taken from patent publication US20120053119A1, “THERAPEUTIC METHOD FOR INCREASING PANCREATIC BETA CELL MASS” (priority 2009, published 2012).
# Assays:
# Assay type in all cases: cell-based
# human islets = test: SDF-1 mRNA by QRT-PCR in human islets ex vivo; settings: 4 hours; SDF-1 10 nM or 50 nM; two cytokine mixtures
# Protocol: FIG. 29. […] 50 human islets were treated with control, cytokine mixture or SDF-1 for 4 hr, mRNA was then extracted and QRT-PCR was performed. Cytokines 1: 2 ng/ml IL-1beta, 10 ng/ml TNF-alpha, 10 ng/ml IFN-gamma. Cytokines 2: 10 ng/ml IL-1beta, 50 ng/ml TNF-alpha, 50 ng/ml IFN-gamma.
# Groups of 50 human islet cells were treated with one of vehicle control, two different cytokine mixtures (Cytokines 1: 2 ng/ml IL-1beta, 10 ng/ml TNF-alpha, 10 ng/ml IFN-gamma; Cytokines 2: 10 ng/ml IL-1beta, 50 ng/ml TNF-alpha, 50 ng/ml IFN-gamma), or SDF-1 at one of two different concentrations (10 nM or 50 nM) for 4 hours. SDF-1 mRNA was then extracted and QRT-PCR was performed.
# MIN6 cells = test: Thapsigargin-induced apoptosis, Western immunoblot of cleaved caspase-3 and cleaved PARP; settings: SDF-1 10 nM with thapsigargin 1 microM, 16 h
# Protocol: FIG. 6. Inhibition of apoptosis by SDF-1 in INS-1 and MIN-6 cells is reversed by knock-down of betacatenin. A. Western blot analysis of extracts from MIN6 cells that were mock treated, thapsigargin-treated (1 μM) and/or siRNA transfected (0.25 mg/ml), by using anti-serum against cleaved caspase-3 (upper panel), anti-serum against cleaved PARP (middle panel) and actin antibody (lower panel) as a loading control. B. Caspase-3 activity (fluorescence/mg proteinx105) of INS-1 or MIN6 cells mock treated, thapsigargin-treated (1 μM) and/or siRNA transfected (0.25 mg/ml). Results are presented as mean±SD for n=3 independent experiments, All values are relative to the first (leftmost) bar. […] Quantification of apoptotic cells is expressed as percent apoptotic cells relative to the total cells counted (lower left panel). […]
# Thapsigargin-induced apoptosis in INS-1 or MIN6 cells For western immuoblot assay (Cell Signaling), MIN6 cells were seeded into 6 well plates then treated with 1 microM thapsigargin or DMSO control for 16 h and apoptotic activity was measured by Western immunoblotting using antisera specific for cleaved (active) caspase-3 (Cell signaling #9661) and cleaved (active) PARP (Cell signaling #9548). For caspase-3 assay, INS-1 cells or MIN-6 cells in 24-well plates were treated with 1 microM thapsigargin or DMSO for 16 hand caspase-3 activity was determined (Molecular Probes). […]
# alphaTC-1 cells = test: GLP-1 production in alphaTC-1 cells, RIA of media
# Protocol: FIG. 20. […] Upper panel: AlphaTC-1 and alphaTCdeltaPC2 cells were incubated for 24 hrs and total GLP-1 secreted was measured in the media. Lower panel: AlphaTC-1 cells were treated with SDF-1 or SDF-1+exendin-4 (Exd4) for the times indicated. Media obtained from the cells was assayed with an RIA specific for the active GLP-1. The findings of increased expression of PC1/3 activity, as evidenced by the production of GLP-1. In the absence of PC2 in alphaTCdPC2 cells is consistent with the findings reported by Wideman et al from the Kieffer lab and by Webb et al in the Steiner lab. It appears that in the absence of PC2, PC13 is expressed. The appearance of GLP-1 between 1 and 4 hrs (lower panel) is consistent with the induction of PC1/3 expression shown above in […]. A most high priority in the experiments planned is to determine whether SDF-1 (and cytokines) induce the production of GLP-1 peptide in mouse islets, pending the availability of support required to do these studies.
substance,measurement,setting,value
"SDF-1: small, secreted 70 amino acid peptide chemokine, SEQ ID NO: 1, ligand of CXCR4",SDF-1 expression (mRNA) in human islets,human islets,induce SDF-1 expression
same,effect on thapsigargin-increased levels of cleaved caspase-3 and PARP,MIN6 cells,inhibited
same,production of processed GLP-1 peptide,alphaTC-1 cells,induces the production of processed GLP-1 peptide
